In patent US20230157952A1, “METHOD FOR IMPROVING THE STABILITY OF A PHARMACEUTICAL COMPOSITION COMPRISING A HIGH PENETRATION DRUG, AND THE PHARMACEUTICAL COMPOSITION OBTAINED THEREFROM” (Techfields Inc., priority 2020, published 2023):

Experiment: Effect of concentration on the stability of the solution (purity over time)
Conditions: for Purity (%) at Day 3 / Purity (%) at Day 7 / Purity (%) at hr 0 / Purity(%) at Day 14 / Purity(%) at Day 21 / Purity(%) at Day 28: 25° C.

For `CCN(CC)CCOC(=O)CCCc1ccc(N(CCCl)CCCl)cc1.Cl`, the “Purity (%) at Day 3” value (0.01 wt % in water) was 83.1%, the “Purity (%) at Day 7” value (0.01 wt % in water) was 72.9% and the “Purity (%) at hr 0” value (0.01 wt % in water) was 97.8%. The “Purity(%) at Day 14” value (0.01 wt % in water) was 56.9%, the “Purity(%) at Day 21” value (0.01 wt % in water) was 43.2% and the “Purity(%) at Day 28” value (0.01 wt % in water) was 34.3%. For the same compound, the “Purity (%) at Day 3” value (0.1 wt % in water) was 94.1%, the “Purity (%) at Day 7” value (0.1 wt % in water) was 89.6% and the “Purity (%) at hr 0” value (0.1 wt % in water) was 97.9%. The “Purity(%) at Day 14” value (0.1 wt % in water) was 81.5%, the “Purity(%) at Day 21” value (0.1 wt % in water) was 73.7% and the “Purity(%) at Day 28” value (0.1 wt % in water) was 62.5%. For the same compound, the “Purity (%) at Day 3” value (1 wt % in water) was 95.1%, the “Purity (%) at Day 7” value (1 wt % in water) was 91.9% and the “Purity (%) at hr 0” value (1 wt % in water) was 98.2%. For the same compound, the “Purity(%) at Day 14” value (1 wt % in water) was 85.9%, the “Purity(%) at Day 21” value (1 wt % in water) was 81.9% and the “Purity(%) at Day 28” value (1 wt % in water) was 76.9%. For the same compound, the “Purity (%) at Day 3” value (3 wt % in water) was 96.2%, the “Purity (%) at Day 7” value (3 wt % in water) was 95.0% and the “Purity (%) at hr 0” value (3 wt % in water) was 98.4%. The “Purity(%) at Day 14” value (3 wt % in water) was 91.0%, the “Purity(%) at Day 21” value (3 wt % in water) was 87.3% and the “Purity(%) at Day 28” value (3 wt % in water) was 83.7%. The “Purity (%) at Day 3” value (5 wt % in water) was 98.2%, the “Purity (%) at Day 7” value (5 wt % in water) was 97.8% and the “Purity (%) at hr 0” value (5 wt % in water) was 98.5%. The “Purity(%) at Day 14” value (5 wt % in water) was 97.0%, the “Purity(%) at Day 21” value (5 wt % in water) was 96.3% and the “Purity(%) at Day 28” value (5 wt % in water) was 95.0%. For the same compound, the “Purity (%) at Day 3” value (7 wt % in water) was 98.4%, the “Purity (%) at Day 7” value (7 wt % in water) was 98.2% and the “Purity (%) at hr 0” value (7 wt % in water) was 98.5%. For the same compound, the “Purity(%) at Day 14” value (7 wt % in water) was 98.0%, the “Purity(%) at Day 21” value (7 wt % in water) was 97.6% and the “Purity(%) at Day 28” value (7 wt % in water) was 97.4%. The “Purity (%) at Day 3” value (8 wt % in water) was 98. %, the “Purity (%) at Day 7” value (8 wt % in water) was 98.3% and the “Purity (%) at hr 0” value (8 wt % in water) was 98.5%. For the same compound, the “Purity(%) at Day 14” value (8 wt % in water) was 97.9%, the “Purity(%) at Day 21” value (8 wt % in water) was 97.7% and the “Purity(%) at Day 28” value (8 wt % in water) was 97.3%. For the same compound, the “Purity (%) at Day 3” value (10 wt % in water) was 98.5%, the “Purity (%) at Day 7” value (10 wt % in water) was 98.3% and the “Purity (%) at hr 0” value (10 wt % in water) was 98.6%. For the same compound, the “Purity(%) at Day 14” value (10 wt % in water) was 98.2%, the “Purity(%) at Day 21” value (10 wt % in water) was 97.7% and the “Purity(%) at Day 28” value (10 wt % in water) was 97.4%. For the same compound, the “Purity (%) at Day 3” value (15 wt % in water) was 98.5%, the “Purity (%) at Day 7” value (15 wt % in water) was 98.4% and the “Purity (%) at hr 0” value (15 wt % in water) was 98.6%. For the same compound, the “Purity(%) at Day 14” value (15 wt % in water) was 98.1%, the “Purity(%) at Day 21” value (15 wt % in water) was 97.7% and the “Purity(%) at Day 28” value (15 wt % in water) was 97.3%. For the same compound, the “Purity (%) at Day 3” value (20 wt % in water) was 98.4%, the “Purity (%) at Day 7” value (20 wt % in water) was 98.3% and the “Purity (%) at hr 0” value (20 wt % in water) was 98.6%. For the same compound, the “Purity(%) at Day 14” value (20 wt % in water) was 98.2%, the “Purity(%) at Day 21” value (20 wt % in water) was 97.8% and the “Purity(%) at Day 28” value (20 wt % in water) was 97.3%. The “Purity (%) at Day 3” value (30 wt % in water) was 98.4%, the “Purity (%) at Day 7” value (30 wt % in water) was 98.4% and the “Purity (%) at hr 0” value (30 wt % in water) was 98.5%. The “Purity(%) at Day 14” value (30 wt % in water) was 98.3%, the “Purity(%) at Day 21” value (30 wt % in water) was 97.7% and the “Purity(%) at Day 28” value (30 wt % in water) was 97.4%. For the same compound, the “Purity (%) at Day 3” value (50 wt % in water) was 98.4%, the “Purity (%) at Day 7” value (50 wt % in water) was 98.3% and the “Purity (%) at hr 0” value (50 wt % in water) was 98.6%. The “Purity(%) at Day 14” value (50 wt % in water) was 98.2%, the “Purity(%) at Day 21” value (50 wt % in water) was 97.8% and the “Purity(%) at Day 28” value (50 wt % in water) was 97.4%.
With `CCN(CC)CCOC(=O)CCCc1ccc(N(CCS(C)(=O)=O)CCS(C)(=O)=O)cc1.Cl` the “Purity (%) at Day 3” value (0.01 wt % in water) was 83.4%, the “Purity (%) at Day 7” value (0.01 wt % in water) was 73.2% and the “Purity (%) at hr 0” value (0.01 wt % in water) was 97.6%. The “Purity(%) at Day 14” value (0.01 wt % in water) was 55.2%, the “Purity(%) at Day 21” value (0.01 wt % in water) was 43.1% and the “Purity(%) at Day 28” value (0.01 wt % in water) was 32.0%. The “Purity (%) at Day 3” value (0.1 wt % in water) was 93.7%, the “Purity (%) at Day 7” value (0.1 wt % in water) was 88.3% and the “Purity (%) at hr 0” value (0.1 wt % in water) was 97.7%. The “Purity(%) at Day 14” value (0.1 wt % in water) was 80.6%, the “Purity(%) at Day 21” value (0.1 wt % in water) was 71.5% and the “Purity(%) at Day 28” value (0.1 wt % in water) was 60.7%. For the same compound, the “Purity (%) at Day 3” value (1 wt % in water) was 95.1%, the “Purity (%) at Day 7” value (1 wt % in water) was 90.8% and the “Purity (%) at hr 0” value (1 wt % in water) was 98.0%. For the same compound, the “Purity(%) at Day 14” value (1 wt % in water) was 85.1%, the “Purity(%) at Day 21” value (1 wt % in water) was 80.3% and the “Purity(%) at Day 28” value (1 wt % in water) was 73.8%. The “Purity (%) at Day 3” value (3 wt % in water) was 96.0%, the “Purity (%) at Day 7” value (3 wt % in water) was 94.3% and the “Purity (%) at hr 0” value (3 wt % in water) was 98.1%. The “Purity(%) at Day 14” value (3 wt % in water) was 89.7%, the “Purity(%) at Day 21” value (3 wt % in water) was 84.8% and the “Purity(%) at Day 28” value (3 wt % in water) was 80.6%. For the same compound, the “Purity (%) at Day 3” value (5 wt % in water) was 97.8%, the “Purity (%) at Day 7” value (5 wt % in water) was 97.2% and the “Purity (%) at hr 0” value (5 wt % in water) was 98.2%. For the same compound, the “Purity(%) at Day 14” value (5 wt % in water) was 95.3%, the “Purity(%) at Day 21” value (5 wt % in water) was 93.0% and the “Purity(%) at Day 28” value (5 wt % in water) was 90.3%. The “Purity (%) at Day 3” value (7 wt % in water) was 98.3%, the “Purity (%) at Day 7” value (7 wt % in water) was 98.1% and the “Purity (%) at hr 0” value (7 wt % in water) was 98.4%. The “Purity(%) at Day 14” value (7 wt % in water) was 98.0%, the “Purity(%) at Day 21” value (7 wt % in water) was 97.5% and the “Purity(%) at Day 28” value (7 wt % in water) was 97.0%. The “Purity (%) at Day 3” value (8 wt % in water) was 98.2%, the “Purity (%) at Day 7” value (8 wt % in water) was 98.2% and the “Purity (%) at hr 0” value (8 wt % in water) was 98.3%. The “Purity(%) at Day 14” value (8 wt % in water) was 98.1%, the “Purity(%) at Day 21” value (8 wt % in water) was 97.6% and the “Purity(%) at Day 28” value (8 wt % in water) was 97.0%. The “Purity (%) at Day 3” value (10 wt % in water) was 98.3%, the “Purity (%) at Day 7” value (10 wt % in water) was 98.3% and the “Purity (%) at hr 0” value (10 wt % in water) was 98.4%. The “Purity(%) at Day 14” value (10 wt % in water) was 98.0%, the “Purity(%) at Day 21” value (10 wt % in water) was 97.5% and the “Purity(%) at Day 28” value (10 wt % in water) was 97.1%. The “Purity (%) at Day 3” value (15 wt % in water) was 98.4%, the “Purity (%) at Day 7” value (15 wt % in water) was 98.2% and the “Purity (%) at hr 0” value (15 wt % in water) was 98.4%. For the same compound, the “Purity(%) at Day 14” value (15 wt % in water) was 98.1%, the “Purity(%) at Day 21” value (15 wt % in water) was 97.7% and the “Purity(%) at Day 28” value (15 wt % in water) was 97.2%. The “Purity (%) at Day 3” value (20 wt % in water) was 98.4%, the “Purity (%) at Day 7” value (20 wt % in water) was 98.3% and the “Purity (%) at hr 0” value (20 wt % in water) was 98.4%. For the same compound, the “Purity(%) at Day 14” value (20 wt % in water) was 98.2%, the “Purity(%) at Day 21” value (20 wt % in water) was 97.6% and the “Purity(%) at Day 28” value (20 wt % in water) was 97.2%. For the same compound, the “Purity (%) at Day 3” value (30 wt % in water) was 98.4%, the “Purity (%) at Day 7” value (30 wt % in water) was 98.2% and the “Purity (%) at hr 0” value (30 wt % in water) was 98.5%. The “Purity(%) at Day 14” value (30 wt % in water) was 98.1%, the “Purity(%) at Day 21” value (30 wt % in water) was 97.8% and the “Purity(%) at Day 28” value (30 wt % in water) was 97.3%. For the same compound, the “Purity (%) at Day 3” value (50 wt % in water) was 98.3%, the “Purity (%) at Day 7” value (50 wt % in water) was 98.2% and the “Purity (%) at hr 0” value (50 wt % in water) was 98.4%. The “Purity(%) at Day 14” value (50 wt % in water) was 98.2%, the “Purity(%) at Day 21” value (50 wt % in water) was 97.7% and the “Purity(%) at Day 28” value (50 wt % in water) was 97.3%.
In the case of `CCN(CC)CCOC(=O)CCCc1ccc(N(CCCl)CCCl)cc1.Cl` [2-(diethylamino)ethyl 4-[bis(2-chloroethyl)amino]benzenebutyrate.HCl], the “Stability when the concentration is 0.1% or lower” value (in water at 25° C.) is reported as “not stable”.
